Source: ChEMBL document CHEMBL1136415, “3-Acylamino-azetidin-2-one as a novel class of cysteine proteases inhibitors” (Bioorg Med Chem Lett, 2003)

biological target: Procathepsin L (Homo sapiens, UniProt P07711); assay: Inhibition of recombinant human Cathepsin L
Sequence (P07711 whole entry): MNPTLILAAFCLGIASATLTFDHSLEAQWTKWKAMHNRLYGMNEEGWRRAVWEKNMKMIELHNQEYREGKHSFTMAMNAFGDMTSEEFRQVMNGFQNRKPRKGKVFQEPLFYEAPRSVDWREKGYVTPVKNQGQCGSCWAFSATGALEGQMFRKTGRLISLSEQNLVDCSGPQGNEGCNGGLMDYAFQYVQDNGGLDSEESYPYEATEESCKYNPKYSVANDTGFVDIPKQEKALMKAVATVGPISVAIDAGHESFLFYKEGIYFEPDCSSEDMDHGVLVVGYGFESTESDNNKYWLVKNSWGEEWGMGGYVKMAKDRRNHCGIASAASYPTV

Row | IC50 | Structure (SMILES)
1 | 0.091 µM | CC(C)CO[C@@H]1NC(=O)[C@H]1NC(=O)[C@H](Cc1ccccc1)NC(=O)OCc1ccccc1
2 | 0.163 µM | CCCCO[C@@H]1NC(=O)[C@H]1NC(=O)[C@H](Cc1ccccc1)NC(=O)OCc1ccccc1
3 | 3.96 µM | O=C(N[C@@H](Cc1ccccc1)C(=O)N[C@@H]1C(=O)N[C@H]1OCc1ccccc1)OCc1ccccc1
4 | 0.0001 µM | O=C(N[C@@H](Cc1ccccc1)C(=O)N[C@@H]1C(=O)N[C@H]1Sc1ccccc1)OCc1ccccc1
5 | 0.042 µM | CC(=O)O[C@@H]1NC(=O)[C@H]1NC(=O)[C@H](Cc1ccccc1)NC(=O)OCc1ccccc1
6 | 0.78 µM | CC(C)(C)O[C@@H]1NC(=O)[C@H]1NC(=O)[C@H](Cc1ccccc1)NC(=O)OCc1ccccc1
7 | 0.015 µM | O=C(N[C@@H](Cc1ccccc1)C(=O)N[C@@H]1C(=O)N[C@@H]1Sc1ccccc1)OCc1ccccc1
8 | 0.166 µM | O=C(N[C@@H](Cc1ccccc1)C(=O)N[C@@H]1C(=O)N[C@H]1OC(=O)c1ccccc1)OCc1ccccc1
9 | 37.4 µM | O=C(N[C@@H](Cc1ccccc1)C(=O)N[C@@H]1CNC1=O)OCc1ccccc1
10 | 0.047 µM | O=C(CCc1ccccc1)O[C@@H]1NC(=O)[C@H]1NC(=O)[C@H](Cc1ccccc1)NC(=O)OCc1ccccc1
11 | 0.0001 µM | O=C(N[C@@H](Cc1ccccc1)C(=O)N[C@@H]1C(=O)N[C@H]1S(=O)(=O)c1ccccc1)OCc1ccccc1

biological target: T1, Neutrophil elastase (Homo sapiens, UniProt P08246); assay: Inhibition of human leukocyte elastase(HLE)
T1 sequence (P08246 whole entry): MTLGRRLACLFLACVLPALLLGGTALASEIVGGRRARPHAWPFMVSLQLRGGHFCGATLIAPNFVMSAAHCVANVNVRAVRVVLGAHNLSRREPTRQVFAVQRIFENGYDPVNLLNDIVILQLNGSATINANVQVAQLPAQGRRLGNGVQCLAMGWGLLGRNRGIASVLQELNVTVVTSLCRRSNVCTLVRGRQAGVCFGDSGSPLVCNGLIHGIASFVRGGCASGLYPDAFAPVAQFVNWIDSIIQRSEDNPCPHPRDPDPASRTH

Row | IC50 | Structure (SMILES)
12 | > 30 µM | O=C(N[C@@H](Cc1ccccc1)C(=O)N[C@@H]1C(=O)N[C@H]1Oc1ccccc1)OCc1ccccc1
13 | > 50 µM | CC(C)CO[C@@H]1NC(=O)[C@H]1NC(=O)[C@H](Cc1ccccc1)NC(=O)OCc1ccccc1
14 | > 50 µM | CCCCO[C@@H]1NC(=O)[C@H]1NC(=O)[C@H](Cc1ccccc1)NC(=O)OCc1ccccc1
15 | > 50 µM | O=C(N[C@@H](Cc1ccccc1)C(=O)N[C@@H]1C(=O)N[C@H]1OCc1ccccc1)OCc1ccccc1
16 | > 50 µM | O=C(N[C@@H](Cc1ccccc1)C(=O)N[C@@H]1C(=O)N[C@H]1Sc1ccccc1)OCc1ccccc1
17 | > 30 µM | O=C(N[C@@H](Cc1ccccc1)C(=O)N[C@@H]1C(=O)N[C@@H]1Oc1ccccc1)OCc1ccccc1
18 | > 10 µM | CC(=O)O[C@@H]1NC(=O)[C@H]1NC(=O)[C@H](Cc1ccccc1)NC(=O)OCc1ccccc1
19 | > 50 µM | CC(C)(C)O[C@@H]1NC(=O)[C@H]1NC(=O)[C@H](Cc1ccccc1)NC(=O)OCc1ccccc1
20 | > 50 µM | O=C(N[C@@H](Cc1ccccc1)C(=O)N[C@@H]1C(=O)N[C@@H]1Sc1ccccc1)OCc1ccccc1
21 | > 50 µM | O=C(N[C@@H](Cc1ccccc1)C(=O)N[C@@H]1C(=O)N[C@H]1OC(=O)c1ccccc1)OCc1ccccc1
22 | > 50 µM | O=C(N[C@@H](Cc1ccccc1)C(=O)N[C@@H]1CNC1=O)OCc1ccccc1
23 | > 50 µM | O=C(N[C@@H](Cc1ccccc1)C(=O)N[C@H]1CNC1=O)OCc1ccccc1
24 | > 50 µM | O=C(CCc1ccccc1)O[C@@H]1NC(=O)[C@H]1NC(=O)[C@H](Cc1ccccc1)NC(=O)OCc1ccccc1
25 | > 50 µM | O=C(N[C@@H](Cc1ccccc1)C(=O)N[C@@H]1C(=O)N[C@H]1S(=O)(=O)c1ccccc1)OCc1ccccc1

biological target: Cathepsin S (Homo sapiens, UniProt P25774); assay: Inhibition of recombinant human cathepsin S
Sequence (P25774 whole entry): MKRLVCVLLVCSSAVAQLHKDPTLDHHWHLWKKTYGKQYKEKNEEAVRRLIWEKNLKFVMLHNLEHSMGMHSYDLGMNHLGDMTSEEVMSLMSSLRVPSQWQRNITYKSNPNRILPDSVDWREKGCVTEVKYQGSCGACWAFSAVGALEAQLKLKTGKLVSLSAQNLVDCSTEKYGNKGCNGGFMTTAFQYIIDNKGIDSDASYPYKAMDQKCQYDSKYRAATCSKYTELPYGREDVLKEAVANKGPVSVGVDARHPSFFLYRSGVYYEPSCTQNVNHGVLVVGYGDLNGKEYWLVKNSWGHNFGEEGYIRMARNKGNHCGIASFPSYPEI

Row | IC50 | Structure (SMILES)
26 | 0.33 µM | O=C(N[C@@H](Cc1ccccc1)C(=O)N[C@@H]1C(=O)N[C@H]1Oc1ccccc1)OCc1ccccc1
27 | > 2.5 µM | CC(C)CO[C@@H]1NC(=O)[C@H]1NC(=O)[C@H](Cc1ccccc1)NC(=O)OCc1ccccc1
28 | 0.355 µM | CCCCO[C@@H]1NC(=O)[C@H]1NC(=O)[C@H](Cc1ccccc1)NC(=O)OCc1ccccc1
29 | > 2.5 µM | O=C(N[C@@H](Cc1ccccc1)C(=O)N[C@@H]1C(=O)N[C@H]1OCc1ccccc1)OCc1ccccc1
30 | 0.33 µM | O=C(N[C@@H](Cc1ccccc1)C(=O)N[C@@H]1C(=O)N[C@H]1Sc1ccccc1)OCc1ccccc1
31 | 0.207 µM | CC(=O)O[C@@H]1NC(=O)[C@H]1NC(=O)[C@H](Cc1ccccc1)NC(=O)OCc1ccccc1
32 | > 2.5 µM | CC(C)(C)O[C@@H]1NC(=O)[C@H]1NC(=O)[C@H](Cc1ccccc1)NC(=O)OCc1ccccc1
33 | 2.5 µM | O=C(N[C@@H](Cc1ccccc1)C(=O)N[C@@H]1C(=O)N[C@@H]1Sc1ccccc1)OCc1ccccc1
34 | 0.02 µM | O=C(N[C@@H](Cc1ccccc1)C(=O)N[C@@H]1C(=O)N[C@H]1OC(=O)c1ccccc1)OCc1ccccc1
35 | > 5 µM | O=C(N[C@@H](Cc1ccccc1)C(=O)N[C@@H]1CNC1=O)OCc1ccccc1
36 | 0.041 µM | O=C(CCc1ccccc1)O[C@@H]1NC(=O)[C@H]1NC(=O)[C@H](Cc1ccccc1)NC(=O)OCc1ccccc1
37 | 0.048 µM | O=C(N[C@@H](Cc1ccccc1)C(=O)N[C@@H]1C(=O)N[C@H]1S(=O)(=O)c1ccccc1)OCc1ccccc1

biological target: Cathepsin B (Rattus norvegicus, UniProt P00787); assay: Inhibition of recombinant rat Cathepsin B
Sequence (P00787 whole entry): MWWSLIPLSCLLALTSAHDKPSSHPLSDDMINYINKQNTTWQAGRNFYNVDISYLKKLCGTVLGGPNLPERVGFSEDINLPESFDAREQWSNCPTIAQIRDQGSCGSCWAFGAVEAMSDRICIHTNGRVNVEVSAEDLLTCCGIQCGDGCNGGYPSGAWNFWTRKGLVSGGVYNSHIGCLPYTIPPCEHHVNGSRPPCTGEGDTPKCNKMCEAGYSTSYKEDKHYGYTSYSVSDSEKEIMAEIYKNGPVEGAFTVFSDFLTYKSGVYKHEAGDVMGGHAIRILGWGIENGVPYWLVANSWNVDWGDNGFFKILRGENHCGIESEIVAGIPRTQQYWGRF

Row | IC50 | Structure (SMILES)
38 | 10.9 µM | O=C(N[C@@H](Cc1ccccc1)C(=O)N[C@@H]1C(=O)N[C@H]1Oc1ccccc1)OCc1ccccc1
39 | 6.46 µM | CC(C)CO[C@@H]1NC(=O)[C@H]1NC(=O)[C@H](Cc1ccccc1)NC(=O)OCc1ccccc1
40 | 7.01 µM | CCCCO[C@@H]1NC(=O)[C@H]1NC(=O)[C@H](Cc1ccccc1)NC(=O)OCc1ccccc1
41 | 32.6 µM | O=C(N[C@@H](Cc1ccccc1)C(=O)N[C@@H]1C(=O)N[C@H]1OCc1ccccc1)OCc1ccccc1
42 | 10.5 µM | O=C(N[C@@H](Cc1ccccc1)C(=O)N[C@@H]1C(=O)N[C@H]1Sc1ccccc1)OCc1ccccc1
43 | 0.43 µM | O=C(N[C@@H](Cc1ccccc1)C(=O)N[C@@H]1C(=O)N[C@@H]1Oc1ccccc1)OCc1ccccc1
44 | 0.47 µM | CC(=O)O[C@@H]1NC(=O)[C@H]1NC(=O)[C@H](Cc1ccccc1)NC(=O)OCc1ccccc1
45 | 11.4 µM | CC(C)(C)O[C@@H]1NC(=O)[C@H]1NC(=O)[C@H](Cc1ccccc1)NC(=O)OCc1ccccc1
46 | 39.7 µM | O=C(N[C@@H](Cc1ccccc1)C(=O)N[C@@H]1C(=O)N[C@@H]1Sc1ccccc1)OCc1ccccc1
47 | 27.5 µM | O=C(N[C@@H](Cc1ccccc1)C(=O)N[C@@H]1C(=O)N[C@H]1OC(=O)c1ccccc1)OCc1ccccc1
48 | 13.6 µM | O=C(N[C@@H](Cc1ccccc1)C(=O)N[C@@H]1CNC1=O)OCc1ccccc1
49 | 2.7 µM | O=C(N[C@@H](Cc1ccccc1)C(=O)N[C@H]1CNC1=O)OCc1ccccc1
50 | 9.71 µM | O=C(CCc1ccccc1)O[C@@H]1NC(=O)[C@H]1NC(=O)[C@H](Cc1ccccc1)NC(=O)OCc1ccccc1

biological target: T2, Cathepsin K (Homo sapiens, UniProt P43235); assay: Inhibition of recombinant human Cathepsin K
T2 sequence (P43235 whole entry): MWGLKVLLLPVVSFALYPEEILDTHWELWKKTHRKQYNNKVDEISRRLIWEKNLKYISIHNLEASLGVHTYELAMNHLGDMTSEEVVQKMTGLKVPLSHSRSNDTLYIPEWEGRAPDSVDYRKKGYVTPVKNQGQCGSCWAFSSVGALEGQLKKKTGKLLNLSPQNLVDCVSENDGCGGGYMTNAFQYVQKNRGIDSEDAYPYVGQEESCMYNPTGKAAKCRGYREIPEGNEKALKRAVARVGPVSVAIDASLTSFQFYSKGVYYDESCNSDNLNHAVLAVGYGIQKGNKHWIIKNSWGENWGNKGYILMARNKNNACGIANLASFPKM

Row | IC50 | Structure (SMILES)
51 | 0.1 µM | O=C(N[C@@H](Cc1ccccc1)C(=O)N[C@@H]1C(=O)N[C@H]1Oc1ccccc1)OCc1ccccc1
52 | 2.3 µM | CC(C)CO[C@@H]1NC(=O)[C@H]1NC(=O)[C@H](Cc1ccccc1)NC(=O)OCc1ccccc1
53 | 0.1 µM | CCCCO[C@@H]1NC(=O)[C@H]1NC(=O)[C@H](Cc1ccccc1)NC(=O)OCc1ccccc1
54 | 2.5 µM | O=C(N[C@@H](Cc1ccccc1)C(=O)N[C@@H]1C(=O)N[C@H]1OCc1ccccc1)OCc1ccccc1
55 | 0.0084 µM | O=C(N[C@@H](Cc1ccccc1)C(=O)N[C@@H]1C(=O)N[C@H]1Sc1ccccc1)OCc1ccccc1
56 | 0.016 µM | O=C(N[C@@H](Cc1ccccc1)C(=O)N[C@@H]1C(=O)N[C@@H]1Oc1ccccc1)OCc1ccccc1
57 | 0.1 µM | CC(=O)O[C@@H]1NC(=O)[C@H]1NC(=O)[C@H](Cc1ccccc1)NC(=O)OCc1ccccc1
58 | 2.5 µM | CC(C)(C)O[C@@H]1NC(=O)[C@H]1NC(=O)[C@H](Cc1ccccc1)NC(=O)OCc1ccccc1
59 | 0.072 µM | O=C(N[C@@H](Cc1ccccc1)C(=O)N[C@@H]1C(=O)N[C@@H]1Sc1ccccc1)OCc1ccccc1
60 | 0.1 µM | O=C(N[C@@H](Cc1ccccc1)C(=O)N[C@@H]1C(=O)N[C@H]1OC(=O)c1ccccc1)OCc1ccccc1
61 | > 5 µM | O=C(N[C@@H](Cc1ccccc1)C(=O)N[C@@H]1CNC1=O)OCc1ccccc1
62 | 0.038 µM | O=C(CCc1ccccc1)O[C@@H]1NC(=O)[C@H]1NC(=O)[C@H](Cc1ccccc1)NC(=O)OCc1ccccc1
63 | 0.0065 µM | O=C(N[C@@H](Cc1ccccc1)C(=O)N[C@@H]1C(=O)N[C@H]1S(=O)(=O)c1ccccc1)OCc1ccccc1
